Test results from patent publication US6914045B2, “Glycopeptide antibiotics” (Wyeth Holdings Corporation, priority 2001, dated 2005).
Values after ≈ are worked out from the molar mass of the structure shown.

Assays:
Test in all cases: in vitro antibacterial evaluation, MIC by broth dilution
Format in all cases: cell-based
[1] = tested on: Enterococcus sp.; conditions: broth dilution, 18 hours at 35° C.
Experimental: (§1) Methods for in vitro Antibacterial Evaluation (Table 1)
(§2) The minimum inhibitory concentration (MIC), the lowest concentration of the antibiotic which inhibits growth of the test organism, is determined by the broth dilution method using Muller-Hinton II […] (Baltimore Biological Laboratories) following the recommendations of the National Committee for Clinical Laboratory Standards [Methods for dilution antimicrobial susceptibility tests for bacteria that grow aerobically, approved standard M7-A2, National Committee for Clinical Laboratory Standards, Villanova, Pa.].
(§3) An inoculum level of 5×10^5 CFU/mL, and a range of antibiotic concentrations (64-0.06 μg/mL) is used. […] The test organisms include a spectrum of Gram-positive bacteria comprised of Staphylococcus sp., Streptococcus sp. and Enterococcus sp. These organisms include recent clinical isolates that are resistant to methicillin, penicillin and/or vancomycin.

[2] = tested on: Staphylococcus sp.; conditions: broth dilution, 18 hours at 35° C.; for MIC Staphylococcus aureus (ATCC 29213): strain ATCC 29213; for MIC Staphylococcus aureus (GC 1131): strain GC 1131; for MIC Staphylococcus aureus (GC 4535): strain GC 4535; for MIC Staphylococcus aureus-SMITH (GC 4536): strain GC 4536
Experimental: as §1, §2, §3

[3] = tested on: Escherichia coli; conditions: 18 hours at 35° C.
Experimental: as §2, §3

[4] = Enterococcus faecalis (ATCC 29212)
[5] = Enterococcus faecalis (GC 2242)
[6] = Enterococcus faecalis (GC 4552)

CC(c1ccccc1)C1NC(=O)CNC(=O)C(CO)NC(=O)C(C(O)C2CNC(=N)N2C2OC(CO)C(O)C(O)C2O)NC(=O)C(C(O)C2CNC(=N)N2)NC(=O)C(Cc2ccc(OC3OC(COC(=O)Cc4ccccc4)C(OC4OC(CO)C(O)C(O)C4O)C(O)C3O)cc2)NC1=O (stereo not drawn) [Example 98b]
MIC Enterococcus faecalis (ATCC 29212) [1, 4]: 64 µg/mL (≈ 45.3 µM) | MIC Enterococcus faecalis (GC 2242) [1, 5]: 64 µg/mL (≈ 45.3 µM) | MIC Enterococcus faecalis (GC 4552) [1, 6]: 128 µg/mL (≈ 90.6 µM) | MIC Enterococcus faecalis (ATCC 29212) [1]: 64 µg/mL (≈ 45.3 µM) | MIC Enterococcus faecalis (GC 2242) [1]: 64 µg/mL (≈ 45.3 µM) | MIC Enterococcus faecalis (GC 4552) [1]: 128 µg/mL (≈ 90.6 µM) | MIC Coagulase Negative Staphylococcus (GC 4537) [2]: 16 µg/mL (≈ 11.3 µM) | MIC Coagulase Negative Staphylococcus (GC 4538) [2]: 8 µg/mL (≈ 5.66 µM) | MIC Coagulase Negative Staphylococcus (GC 4547) [2]: 8 µg/mL (≈ 5.66 µM) | MIC Coagulase Negative Staphylococcus (GC 4537) ([2]; strain GC 4537): 16 µg/mL (≈ 11.3 µM) | MIC Coagulase Negative Staphylococcus (GC 4538) ([2]; strain GC 4538): 8 µg/mL (≈ 5.66 µM) | MIC Coagulase Negative Staphylococcus (GC 4547) ([2]; strain GC 4547): 8 µg/mL (≈ 5.66 µM) | MIC Staphylococcus aureus (ATCC 29213) [2]: 16 µg/mL (≈ 11.3 µM) | MIC Staphylococcus aureus (GC 1131) [2]: 16 µg/mL (≈ 11.3 µM) | MIC Staphylococcus aureus (GC 4535) [2]: 16 µg/mL (≈ 11.3 µM) | MIC Staphylococcus aureus-SMITH (GC 4536) [2]: 8 µg/mL (≈ 5.66 µM) | MIC Escherichia coli (GC 4559) [3]: >128 µg/mL | MIC Escherichia coli (GC 4560) [3]: 2 µg/mL (≈ 1.42 µM)

CC(c1ccccc1)C1NC(=O)CNC(=O)C(CO)NC(=O)C(C(O)C2CNC(=N)N2C2OC(CO)C(O)C(O)C2O)NC(=O)C(C(O)C2CNC(=N)N2)NC(=O)C(Cc2ccc(OC3OC(CO)C(OC4OC(COC(=O)Cc5ccccc5)C(O)C(O)C4O)C(O)C3O)cc2)NC1=O (stereo not drawn) [Example 98c]
MIC Enterococcus faecalis (ATCC 29212) [1, 4]: 16 µg/mL (≈ 11.3 µM) | MIC Enterococcus faecalis (GC 2242) [1, 5]: 8 µg/mL (≈ 5.66 µM) | MIC Enterococcus faecalis (GC 4552) [1, 6]: 16 µg/mL (≈ 11.3 µM) | MIC Enterococcus faecalis (ATCC 29212) [1]: 16 µg/mL (≈ 11.3 µM) | MIC Enterococcus faecalis (GC 2242) [1]: 8 µg/mL (≈ 5.66 µM) | MIC Enterococcus faecalis (GC 4552) [1]: 16 µg/mL (≈ 11.3 µM) | MIC Coagulase Negative Staphylococcus (GC 4537) [2]: 2 µg/mL (≈ 1.42 µM) | MIC Coagulase Negative Staphylococcus (GC 4538) [2]: 1 µg/mL (≈ 0.708 µM) | MIC Coagulase Negative Staphylococcus (GC 4547) [2]: 1 µg/mL (≈ 0.708 µM) | MIC Coagulase Negative Staphylococcus (GC 4537) ([2]; strain GC 4537): 2 µg/mL (≈ 1.42 µM) | MIC Coagulase Negative Staphylococcus (GC 4538) ([2]; strain GC 4538): 1 µg/mL (≈ 0.708 µM) | MIC Coagulase Negative Staphylococcus (GC 4547) ([2]; strain GC 4547): 1 µg/mL (≈ 0.708 µM) | MIC Staphylococcus aureus (ATCC 29213) [2]: 2 µg/mL (≈ 1.42 µM) | MIC Staphylococcus aureus (GC 1131) [2]: 2 µg/mL (≈ 1.42 µM) | MIC Staphylococcus aureus (GC 4535) [2]: 4 µg/mL (≈ 2.83 µM) | MIC Staphylococcus aureus-SMITH (GC 4536) [2]: 2 µg/mL (≈ 1.42 µM) | MIC Escherichia coli (GC 4559) [3]: 64 µg/mL (≈ 45.3 µM) | MIC Escherichia coli (GC 4560) [3]: 0.5 µg/mL (≈ 0.354 µM)
